Experimental data as given in US12102089B2, “Method for inactivating mold spores” (DSM IP ASSETS B.V., priority 2017, dated 2024).

What was measured:
[1] = tested on: Taleromyces macrosporus CBS 130.89; conditions: 2.5 ppm natamycin, heat treatment, apple juice; cited from earlier work
[2] = tested on: Aspergillus niger ATCC 9029AA; test: Heat treatment of Aspergillus niger ATCC 9029AA spores in ice tea with natamycin, visual growth; format: cell-based; parameters: key to growth or no growth: growth (+); no growth (−)
Method: Commercially available ice tea (Lipton, peach flavor, non-carbonated, 1.5 L) was adjusted to high water hardness by adding 1 ml of a solution of 39 g CaCl2 and 27 g MgCl2 added to 934 g water. ⅓ of this ice tea preparation (the pH of which was 3.15) was left as-such, ⅓ of the preparation was enriched with 5 ppm natamycin and ⅓ of the preparation was enriched with 10 ppm natamycin. Samples of 5 ml were made from each preparation in 15 ml sterile plastic tubes. Of each preparation 8 samples were pre-heated to the desired pasteurization temperature using a water bath. Temperatures used were RT, 60, 65, 70, 75, 80, 85 and 90° C. When the desired temperature was reached, 100 μl of a 2500 spores/ml spore suspension of Aspergillus niger ATCC 9029AA was added to each tube. Subsequently, the samples were kept for 30 seconds at the temperature in question in the water bath. Next, the samples were cooled on ice to a temperature of 25° C. Samples were incubated at 25° C. and visually examined for growth (formation of mold flakes or turbidity) for two months. Additionally, samples were enumerated according to ISO protocol 21527-1.2008 on day 0 (before heat treatment) and day 1 (after heat treatment) to count immediate loss of viability. Enumeration was repeated after 1 month when samples remained free from visual mold growth; most counts were reduced to <10 after heat treatment, but were still able to grow. For the results, see Table 1.

**Q.** What does the source list for `C[C@@H]1C/C=C/C=C/C=C/C=C/[C@H](O[C@@H]2O[C@H](C)[C@@H](O)[C@H](N)[C@@H]2O)C[C@@H]2O[C@](O)(C[C@@H](O)C[C@H]3O[C@@H]3/C=C/C(=O)O1)C[C@H](O)[C@H]2C(=O)O` [natamycin]?
**A.** duration of prevention of germination [1]: 4 days; growth or no growth ([2]; 60°C, 5 ppm, day 1): −; growth or no growth ([2]; 60°C, 5 ppm, day 2): −; growth or no growth ([2]; 60°C, 5 ppm, day 3): −; growth or no growth ([2]; 60°C, 5 ppm, day 4): −; growth or no growth ([2]; 60°C, 5 ppm, day 5): −; growth or no growth ([2]; 60°C, 5 ppm, day 6): −; growth or no growth ([2]; 60°C, 5 ppm, day 7): +; growth or no growth ([2]; 60°C, 5 ppm, day 8): +; growth or no growth ([2]; 60°C, 5 ppm, day 9): +; growth or no growth ([2]; 60°C, 5 ppm, day 10): +; growth or no growth ([2]; 60°C, 5 ppm, day 11): +; growth or no growth ([2]; 60°C, 5 ppm, day 12): +; growth or no growth ([2]; 60°C, 5 ppm, day 13): +; growth or no growth ([2]; 60°C, 5 ppm, day 14): +; growth or no growth ([2]; 60°C, 5 ppm, day 15): +; growth or no growth ([2]; 60°C, 5 ppm, day 16): +; growth or no growth ([2]; 60°C, 5 ppm, day 17): +; growth or no growth ([2]; 60°C, 5 ppm, day 50): +; growth or no growth ([2]; 60°C, 10 ppm, day 1): −; growth or no growth ([2]; 60°C, 10 ppm, day 2): −; growth or no growth ([2]; 60°C, 10 ppm, day 3): −; growth or no growth ([2]; 60°C, 10 ppm, day 4): −; growth or no growth ([2]; 60°C, 10 ppm, day 5): −; growth or no growth ([2]; 60°C, 10 ppm, day 6): −; growth or no growth ([2]; 60°C, 10 ppm, day 7): −; growth or no growth ([2]; 60°C, 10 ppm, day 8): −; growth or no growth ([2]; 60°C, 10 ppm, day 9): −; growth or no growth ([2]; 60°C, 10 ppm, day 10): +; growth or no growth ([2]; 60°C, 10 ppm, day 11): +; growth or no growth ([2]; 60°C, 10 ppm, day 12): +; growth or no growth ([2]; 60°C, 10 ppm, day 13): +; growth or no growth ([2]; 60°C, 10 ppm, day 14): +; growth or no growth ([2]; 60°C, 10 ppm, day 15): +; growth or no growth ([2]; 60°C, 10 ppm, day 16): +; growth or no growth ([2]; 60°C, 10 ppm, day 17): +; growth or no growth ([2]; 60°C, 10 ppm, day 50): +; growth or no growth ([2]; 65°C, 5 ppm, day 1): −; growth or no growth ([2]; 65°C, 5 ppm, day 2): −; growth or no growth ([2]; 65°C, 5 ppm, day 3): −; growth or no growth ([2]; 65°C, 5 ppm, day 4): −; growth or no growth ([2]; 65°C, 5 ppm, day 5): −; growth or no growth ([2]; 65°C, 5 ppm, day 6): −; growth or no growth ([2]; 65°C, 5 ppm, day 7): −; growth or no growth ([2]; 65°C, 5 ppm, day 8): −; growth or no growth ([2]; 65°C, 5 ppm, day 9): −; growth or no growth ([2]; 65°C, 5 ppm, day 10): −; growth or no growth ([2]; 65°C, 5 ppm, day 11): −; growth or no growth ([2]; 65°C, 5 ppm, day 12): −; growth or no growth ([2]; 65°C, 5 ppm, day 13): −; growth or no growth ([2]; 65°C, 5 ppm, day 14): −; growth or no growth ([2]; 65°C, 5 ppm, day 15): −; growth or no growth ([2]; 65°C, 5 ppm, day 16): −; growth or no growth ([2]; 65°C, 5 ppm, day 17): −; growth or no growth ([2]; 65°C, 5 ppm, day 50): −; growth or no growth ([2]; 65°C, 10 ppm, day 1): −; growth or no growth ([2]; 65°C, 10 ppm, day 2): −; growth or no growth ([2]; 65°C, 10 ppm, day 3): −; growth or no growth ([2]; 65°C, 10 ppm, day 4): −; growth or no growth ([2]; 65°C, 10 ppm, day 5): −; growth or no growth ([2]; 65°C, 10 ppm, day 6): −; growth or no growth ([2]; 65°C, 10 ppm, day 7): −; growth or no growth ([2]; 65°C, 10 ppm, day 8): −; growth or no growth ([2]; 65°C, 10 ppm, day 9): −; growth or no growth ([2]; 65°C, 10 ppm, day 10): −; growth or no growth ([2]; 65°C, 10 ppm, day 11): −; growth or no growth ([2]; 65°C, 10 ppm, day 12): −; growth or no growth ([2]; 65°C, 10 ppm, day 13): −; growth or no growth ([2]; 65°C, 10 ppm, day 14): −; growth or no growth ([2]; 65°C, 10 ppm, day 15): −; growth or no growth ([2]; 65°C, 10 ppm, day 16): −; growth or no growth ([2]; 65°C, 10 ppm, day 17): −; growth or no growth ([2]; 65°C, 10 ppm, day 50): −; germination ([2]; 70° C., in the presence of natamycin): no germination occurred; growth or no growth ([2]; 70°C, 5 ppm, day 1): −; growth or no growth ([2]; 70°C, 5 ppm, day 2): −; growth or no growth ([2]; 70°C, 5 ppm, day 3): −; growth or no growth ([2]; 70°C, 5 ppm, day 4): −; growth or no growth ([2]; 70°C, 5 ppm, day 5): −; growth or no growth ([2]; 70°C, 5 ppm, day 6): −; growth or no growth ([2]; 70°C, 5 ppm, day 7): −; growth or no growth ([2]; 70°C, 5 ppm, day 8): −; growth or no growth ([2]; 70°C, 5 ppm, day 9): −; growth or no growth ([2]; 70°C, 5 ppm, day 10): −; growth or no growth ([2]; 70°C, 5 ppm, day 11): −; growth or no growth ([2]; 70°C, 5 ppm, day 12): −; growth or no growth ([2]; 70°C, 5 ppm, day 13): −; growth or no growth ([2]; 70°C, 5 ppm, day 14): −; growth or no growth ([2]; 70°C, 5 ppm, day 15): −; growth or no growth ([2]; 70°C, 5 ppm, day 16): −; growth or no growth ([2]; 70°C, 5 ppm, day 17): −; growth or no growth ([2]; 70°C, 5 ppm, day 50): −; growth or no growth ([2]; 70°C, 10 ppm, day 9): −; growth or no growth ([2]; 70°C, 10 ppm, day 10): −; growth or no growth ([2]; 70°C, 10 ppm, day 11): −; growth or no growth ([2]; 70°C, 10 ppm, day 12): −; growth or no growth ([2]; 70°C, 10 ppm, day 13): −; growth or no growth ([2]; 70°C, 10 ppm, day 14): −; growth or no growth ([2]; 70°C, 10 ppm, day 15): −; growth or no growth ([2]; 70°C, 10 ppm, day 16): −; growth or no growth ([2]; 70°C, 10 ppm, day 17): −; growth or no growth ([2]; 70°C, 10 ppm, day 50): −; germination ([2]; RT and 60° C., 5 ppm natamycin): delayed germination; germination ([2]; RT and 60° C., 10 ppm natamycin): longer delay
